In patent US8809579B2, “Glucagon receptor antagonist compounds, compositions containing such compounds and methods of use” (Merck Sharp & Dohme Corp., priority 2009, dated 2014):

Molecular target: T1, human glucagon receptor (Homo sapiens, UniProt P47871)
T1 construct: expressed in transfected cells; cell membranes used
Test: Glucagon Receptor Binding Assay
Conditions: 125I-Glucagon binding to membranes of CHO cells expressing cloned human glucagon receptor; value for the more active diastereomer where both were prepared
Method: A stable CHO (Chinese hamster ovary) cell line expressing cloned human glucagon receptor was maintained as described (Chiechi, et. al. J Biol Chem 272, 7765-9 (1997); Cascieri, et. al. J Biol Chem 274, 8694-7 (1999)). To determine antagonistic binding affinity of compounds, 0.001-0.003 mg of cell membranes from these cells were pre-incubated with 0.100 mg WGA-coated PVT SPA beads (Amersham) for 20 minutes at room temperature in 25 μL of a buffer containing 50 mM Tris-HCl (pH 7.5), 5 mM MgCl2, 2 mM EDTA, 0.1% BSA and 3% glycerol in Costar 384 well plates with clear bottoms (#3706). Next, 25 μL of ^125I-Glucagon (New England Nuclear, Mass.) (1×10^−14 mol per well) and either 1 μL solutions of test compounds or 0.001 mM unlabeled glucagon or DMSO were added and mixed. After 4-12 hours incubation at room temperature, the radioactivity bound to the cell membranes was determined in a radioactive emission detection counter (Wallac-Microbeta). Data were analyzed using the Data Analyzer software program of Merck & Co., Inc. The IC50 values were calculated using non-linear regression analysis assuming single-site competition.

T1 sequence (P47871 26-477): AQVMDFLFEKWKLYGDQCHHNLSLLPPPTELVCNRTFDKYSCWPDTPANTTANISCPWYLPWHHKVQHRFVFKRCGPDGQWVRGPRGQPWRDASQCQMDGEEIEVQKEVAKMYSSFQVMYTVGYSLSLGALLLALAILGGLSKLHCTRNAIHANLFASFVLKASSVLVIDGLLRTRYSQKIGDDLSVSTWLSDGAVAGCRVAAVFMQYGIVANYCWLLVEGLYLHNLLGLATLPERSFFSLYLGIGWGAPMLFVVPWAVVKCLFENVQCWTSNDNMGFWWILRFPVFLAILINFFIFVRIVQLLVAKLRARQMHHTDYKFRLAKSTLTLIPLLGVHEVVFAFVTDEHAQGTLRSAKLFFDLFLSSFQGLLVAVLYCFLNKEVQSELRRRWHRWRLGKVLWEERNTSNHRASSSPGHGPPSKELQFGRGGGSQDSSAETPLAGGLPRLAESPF

Structure (SMILES) | IC50
CCC[C@H](c1ccc(C(=O)NCCC(=O)O)cc1)[C@@H](Oc1ccnc2c(C)cc(Cl)cc12)c1ccc(Cl)cc1 [Example 67, N-(4-{(1R)-1-[(R)-[(6-chloro-8-methylquinolin-4-yl)oxy](4-chlorophenyl)methyl]butyl}benzoyl)-β-alanine] | 6.6 nM
CCC[C@H](c1ccc(C(=O)NCCC(=O)O)cc1)[C@@H](Oc1cc(C#N)cc(-c2ccc(C(F)(F)F)cc2)c1)c1ccc(Cl)cc1 [Example 36] | 6.3 nM
CCC[C@H](c1ccc(C(=O)NCCC(=O)O)cc1)[C@@H](OCc1ccc2ccccc2c1)c1ccc(Cl)cc1 [Example 73, N-(4-{(1R)-1-[(R)-(4-chlorophenyl)(2-naphthylmethoxy)methyl]butyl}benzoyl)-β-alanine] | 38 nM
N#Cc1cc(Cl)cc(O[C@@H](c2ccc(Cl)cc2)[C@H](CCC(F)(F)F)c2ccc(C(=O)NCCC(=O)O)cc2)c1 [Example 75, N-(4-{(1R)-1-[(R)-(3-chloro-5-cyanophenoxy)(4-chlorophenyl)methyl]-4,4,4-trifluorobutyl}benzoyl)-β-alanine] | 18 nM
CCC[C@H](c1ccc(C(=O)NCCC(=O)O)cc1)[C@@H](OCc1ccc(-c2ccccc2)cc1)c1ccc(Cl)cc1 [Example 74, N-(4-{(1R)-1-[(R)-(biphenyl-4-ylmethoxy)(4-chlorophenyl)methyl]butyl}benzoyl)-β-alanine] | 20 nM
CCC[C@H](c1ccc(C(=O)NCCC(=O)O)cc1)[C@H](Oc1ccc(C(F)(F)F)cc1Cl)c1ccc(Cl)cc1 [Example 65] | 12 nM
CCC[C@H](c1ccc(C(=O)NCCC(=O)O)cc1)[C@@H](Oc1ccc(C#N)c(Cl)c1)c1ccc(Cl)cc1 [Example 18] | 25 nM
CCC[C@H](c1ccc(C(=O)NCCC(=O)O)cc1)[C@@H](Oc1ccnc2cc(C)ccc12)c1ccc(Cl)cc1 [Example 68, N-[4-((1R)-1-{(R)-(4-chlorophenyl)[(7-methylquinolin-4-yl)oxy]methyl}butyl)benzoyl]-β-alanine] | 7.2 nM
CCC[C@H](c1ccc(C(=O)NCCC(=O)O)cc1)[C@@H](OCc1ccc(OC(F)(F)F)cc1)c1ccc(Cl)cc1 [Example 72, N-{4-[(1R)-1-((R)-(4-chlorophenyl){[4-(trifluoromethoxy)benzyl]oxy}methyl)butyl]benzoyl}-β-alanine] | 32 nM
CCC[C@H](c1ccc(C(=O)NCCC(=O)O)cc1)[C@H](Oc1ccc(C(F)(F)F)cc1)c1ccc(Cl)cc1 [Example 62] | 7.9 nM
CCC[C@H](c1ccc(C(=O)NCCC(=O)O)cc1)[C@@H](Oc1ccc(C#N)c2ccccc12)c1ccc(Cl)cc1 [Example 9] | 6.2 nM
CCCC(c1ccc(C(=O)NCCC(=O)O)cc1)C(COc1ccc2cc(OC)ccc2c1)c1ccc(Cl)cc1 (racemic) [Example 86, N-[4-(1-{1-(4-chlorophenyl)-2-[(6-methoxy-2-naphthyl)oxy]ethyl}butyl)benzoyl]-β-alanine] | 16 nM
CCC[C@H](c1ccc(C(=O)NCCC(=O)O)cc1)[C@@H](Oc1cc(C(F)(F)F)ccc1C#N)c1ccc(Cl)cc1 [Example 79] | 7.6 nM
CCC[C@H](c1ccc(C(=O)NCCC(=O)O)cc1)[C@@H](Oc1ccc(Cl)c(Cl)c1)c1ccc(Cl)cc1 [Example 1, N-(4-{(1R)-1-[(R)-(4-chlorophenyl)(3,4-dichlorophenoxy)methyl]butyl}benzoyl)-β-alanine] | 16 nM
CCC[C@H](c1ccc(C(=O)NCCC(=O)O)cc1)[C@@H](Oc1ccc(-c2cccn2C)cc1)c1ccc(Cl)cc1 [Example 47] | 9.2 nM
CCC[C@H](c1ccc(C(=O)NCCC(=O)O)cc1)[C@@H](Oc1ccc(C(F)(F)F)c(C#N)c1)c1ccc(Cl)cc1 [Example 15] | 5.9 nM
CCC[C@H](c1ccc(C(=O)NCCC(=O)O)cc1)[C@@H](Oc1ccc(C)c(C#N)c1)c1ccc(Cl)cc1 [Example 16] | 16 nM
CCC[C@H](c1ccc(C(=O)NCCC(=O)O)cc1)[C@@H](Oc1cc(C(C)(C)C)cc(C(C)(C)C)c1)c1ccc(Cl)cc1 [Example 5] | 11 nM

Now from value to molecule:

IC50 | Structure (SMILES)
5.5 nM | CCC[C@H](c1ccc(C(=O)NCCC(=O)O)cc1)[C@@H](Oc1ccnc2cc(C#N)ccc12)c1ccc(Cl)cc1 [Example 71, N-[4-((1R)-1-{(R)-(4-chlorophenyl)[(7-cyanoquinolin-4-yl)oxy]methyl}butyl)benzoyl]-β-alanine]
4.8 nM | CCC[C@H](c1ccc(C(=O)NCCC(=O)O)cc1)[C@@H](Oc1cc(C#N)cc(C(F)(F)F)c1)c1ccc(Cl)cc1 [Example 76, N-[4-((1R)-1-{(R)-(4-chlorophenyl)[3-cyano-5-(trifluoromethyl)phenoxy]methyl}butyl)benzoyl]-β-alanine]
4.5 nM | CCC[C@H](c1ccc(C(=O)NCCC(=O)O)cc1)[C@@H](Oc1ccnc2cc(Cl)ccc12)c1ccc(Cl)cc1 [Example 69, N-[4-((1R)-1-{(R)-(4-chlorophenyl)[(7-chloroquinolin-4-yl)oxy]methyl}butyl)benzoyl]-β-alanine]
3.6 nM | CCC[C@H](c1ccc(C(=O)NCCC(=O)O)cc1)[C@@H](Oc1ccc(C(F)(F)F)cc1C#N)c1ccc(Cl)cc1 [Example 80]
2.5 nM | CCC[C@H](c1ccc(C(=O)NCCC(=O)O)cc1)[C@@H](Oc1cc(C#N)cc(C(F)(F)F)c1)c1ccc(OC(F)(F)F)cc1 [Example 77, N-[4-((1R)-1-{(R)-(4-trifluoromethoxyphenyl)[3-cyano-5-(trifluoromethyl)phenoxy]methyl}butyl)benzoyl]-β-alanine]
2.1 nM | CCC[C@H](c1ccc(C(=O)NCCC(=O)O)cc1)[C@@H](Oc1cc(C(F)(F)F)nc2ccccc12)c1ccc(Cl)cc1 [Example 70, N-(4-{(1R)-1-[(R)-[(2-trifluoromethylquinolin-4-yl)oxy](4-chlorophenyl)methyl]butyl}benzoyl)-β-alanine]
1.4 nM | CCC[C@H](c1ccc(C(=O)NCCC(=O)O)cc1)[C@@H](Oc1cc(C#N)c(Cl)c(C(F)(F)F)c1)c1ccc(Cl)cc1 [Example 78, N-(4-{(1R)-1-[(R)-[4-chloro-3-cyano-5-(trifluoromethyl)phenoxy](4-chlorophenyl)methyl]butyl}benzoyl)-β-alanine]
1.1 nM | CCC[C@H](c1ccc(C(=O)NCCC(=O)O)cc1)[C@@H](Oc1cc(Cl)c(Cl)c(C#N)c1)c1ccc(Cl)cc1 [Example 85]
0.3 nM | CCC[C@H](c1ccc(C(=O)NCCC(=O)O)cc1)[C@@H](Oc1ccc(-c2ccc(C(F)(F)F)cc2)cc1C#N)c1ccc(Cl)cc1 [Example 59]

Same assay, conditions: comparison of major and minor racemic diastereomers

more potent glucagon receptor antagonist of the two diastereomers | Structure (SMILES)
more potent glucagon receptor antagonist | CCCC(c1ccc(C(=O)NCCC(=O)O)cc1)C(COc1ccc2cc(OC)ccc2c1)c1ccc(Cl)cc1 (stereo not drawn) [86 major diastereomer]
